Tested on: cholesterol absorption (uptake of 14C-cholesterol by the liver)
Assay: Cholesterol absorption test: uptake of 14C-cholesterol by the liver after peroral test meal
Type: in vivo, NMRI mice
Details: dose at which uptake of 14C-cholesterol by the liver was halved (50%) vs control group, mouse
Description: Effect of the compounds of the invention on cholesterol absorption and 3H-taurocholic acid excretion using fecal excrement of mice, rats or hamsters
NMRI mice, Wistar rats, or Golden Syrian hamsters (in groups of n=4-6) were kept in metabolic cages, where they were fed with a standard diet (Altromin, Lage (Lippe)). The afternoon prior to the administration of the radioactive tracers (14C-cholesterol), the feed was removed and the animals were adapted to grates.
Additionally, the animals were labeled s.c. with 3H-TCA (taurocholic acid) (for example 1 μCi/mouse up to 5 μCi/rat) 24 hours prior to the peroral administration of the test meal (14C-cholesterol in Intralipid® 20, Pharmacia-Upjohn).
Cholesterol absorption test: 0.25 ml/mouse Intralipid®D 20 (Pharmacia-Upjohn) ((spiked with 0.25 μCi of 14C-cholesterol in 0.1 mg of cholesterol) was administered perorally by gavage.
Test substances were prepared separately in 0.5% methylcellulose (Sigma)/5% Solutol (BASF, Ludwigshafen) or a suitable vehicle.
The administration volume of the test substance was 0.5 ml/mouse. The test substance was administered immediately prior to the test meal (Intralipid labeled with 14C-cholesterol) (cholesterol absorption test).
The feces were collected over a period of 24 h. Fecal elimination of 14C-cholesterol and 3H-taurocholic acid (TCA) was determined after 24 hours.
The livers were removed and homogenized, and aliquots were incinerated in an oximate (Model 307, Packard) to determine the amount of 14C-cholesterol that had been taken up/absorbed.
The amount of-14C-cholesterol taken up by the liver was based on the administered dose. The ED50 values were interpolated from a dose-effect curve as the dose at which the uptake of 14C-cholesterol by the liver was halved (50%), based on a control group.

| Compound | ED50 (liver) [mg/mouse] |
| --- | --- |
| COc1ccc(C2C(CCC(O)c3ccc(F)cc3)C(=O)N2c2ccc(CNCCCCS(=O)(=O)O)cc2)cc1 (stereo not shown) [I, 4-{4-[3-[3-(4-Fluorophenyl)-3-hydroxypropyl]-2-(4-methoxyphenyl)-4-oxoazetidin-1-yl]benzylamino}butane-1-sulfonic acid] | 1.0 |
| COc1ccc(C2C(CCC(O)c3ccc(F)cc3)C(=O)N2c2ccc(OCCCCN(C)CCS(=O)(=O)O)cc2)cc1 (stereo not shown) [II, 2-[(4-{4-[3-[3-(4-Fluorophenyl)-3-hydroxypropyl]-2-(4-methoxyphenyl)-4-oxoazetidin-1-yl]phenoxy}butyl)methylamino]ethylsulfonic acid] | >0.1 |
| O=C1C(CCC(O)c2ccc(F)cc2)C(c2ccc(OCCCCNCCCCCCOP(=O)(O)O)cc2)N1c1ccc(F)cc1 (stereo not shown) [IV, Phosphoric acid mono{6-[4-(4-{1-(4-fluorophenyl)-3-[3-(4-fluorofluorophenyl)-3-hydroxypropyl]-4-oxoazetidin-2-yl}phenoxy)butylamino]hexyl}ester] | 0.3 |
| COc1ccc(C2C(CCC(O)c3ccc(F)cc3)C(=O)N2c2ccc(CNC(=O)CS(=O)(=O)O)cc2)cc1 (stereo not shown) [IX, {4-[3-[3-(4-Fluorophenyl)-3-hydroxypropyl]-2-(4-methoxyphenyl)-4-oxoazetidin-1-yl]benzylcarbamoyl}methanesulfonic acid] | <1.0 |
| O=C(CS(=O)(=O)O)NCc1ccc(C2C(CCC(O)c3ccc(F)cc3)C(=O)N2c2ccc(F)cc2)cc1 (stereo not shown) [VIII, (4-{1-(4-Fluorophenyl)-3-[3-(4-fluorophenyl)-3-hydroxypropyl]-4-oxoazetidin-2-yl}benzylcarbamoyl)methanesulfonic acid] | 0.3 |
| O=C(O)CCC(=O)NCc1ccc(C2C(CCC(O)c3ccc(F)cc3)C(=O)N2c2ccc(F)cc2)cc1 (stereo not shown) [X, N-(4-{1-(4-Fluorophenyl)-3-[3-(4-fluorophenyl)-3-hydroxypropyl]-4-oxoazetidin-2-yl}benzyl)succinaminic acid] | <1.0 |
| COc1ccc(C2C(CCC(O)c3ccc(F)cc3)C(=O)N2c2ccc(CNC(=O)CCCCCCCCCCC(=O)O)cc2)cc1 (stereo not shown) [XIII, 11-{4-[3-[3-(4-Fluorophenyl)-3-hydroxypropyl]-2-(4-methoxyphenyl)-4-oxoazetidin-1-yl]benzylcarbamoyl}undecanoic acid] | <0.1 |
